Earlier results in patent US10028927B2, “Topical pharmaceutical formulation” (Futura Medical Developments Limited, priority 2015, dated 2018).
Counter-ions that a name gives are not always drawn.

Legend:
[1] = in vivo
[2] = saturated systems in polyethylene glycol and propylene glycol

## O=C(O)Cc1ccccc1Nc1c(Cl)cccc1Cl [diclofenac]
[1]
  systemic clearance compared with other drugs: more rapid systemic clearance compared with other drugs

## O=C(O)Cc1ccccc1Nc1c(Cl)cccc1Cl [diclofenac acid]
Polyethylene glycol
  saturated solubility in polyethylene glycol: 11.18 % w/w
Propanol or iso-propanol
  saturated solubilities in propanol or iso-propanol: 3-4%
Pure ethanol
  saturated solubility in pure ethanol: 5 % w/w
[2]
  diclofenac flux, polyethylene glycol versus propylene glycol systems: no significant difference

## O=C(O)Cc1ccccc1Nc1c(Cl)cccc1Cl [sodium salt of diclofenac acid, diclofenac sodium]
Propylene glycol
  saturated solubility in propylene glycol: approximately 50 % w/w
